Experimental data published in PubChem BioAssay (NCI).
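Where inhibition never reached the appropriate level, the endpoint shown equals the highest concentration tested. Otherwise, values were interpolated linearly from a five-concentration, 48-hour dose response in 96-well plates. Abbreviation: GI50, concentration required for 50% inhibition of growth. The concentration for full growth arrest is given as TGI.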

Legend:
Test in all cases: NCI-60 cell line screen, 48 h
[1] = test system: A549 NSCLC
[2] = test system: COLO 205 colon
[3] = test system: HT29 colon
[4] = test system: IGROV1 ovarian
[5] = test system: LOX IMVI melanoma
[6] = test system: NCI-H23 lung
[7] = test system: OVCAR-5 ovarian
[8] = test system: OVCAR-8 ovarian
[9] = test system: UO-31 renal

Compound	TGI [1]	TGI [2]	TGI [3]	TGI [4]	TGI [5]	TGI [6]	TGI [7]	TGI [8]	TGI [9]	GI50 [1]	GI50 [2]	GI50 [3]	GI50 [4]	GI50 [5]	GI50 [6]	GI50 [8]	GI50 [9]	GI50 [7]
CC1(Cl)C(=O)NC(=O)N([C@H]2C[C@H](O)[C@@H](CO)O2)C1N=[N+]=[N-] (stereo partly specified)	> 100 µM	> 100 µM	> 100 µM	> 100 µM	> 100 µM	> 100 µM	> 100 µM	> 100 µM	> 100 µM									
CC(=O)OC1(Sc2ccccc2)CC2[C@H]3COC(C)(C)O[C@H]3CC[C@@]2(C)CC1=O (stereo partly specified)	> 100 µM	> 100 µM	> 100 µM	> 100 µM		> 100 µM	> 100 µM	> 100 µM	> 100 µM									
CN(C)CCNC(=O)c1ccc2c(c1)oc1cc3ccccc3c(=O)n12	27.5 µM	35.6 µM	40.4 µM	26.4 µM	11 µM	> 100 µM		42.5 µM	30.8 µM	12.3 µM	15.6 µM	18.1 µM	10.6 µM	1.91 µM	31.8 µM	19.4 µM	15.1 µM	
CC(C)(C)C1=CC(=N/N=c2\scc(-c3ccccc3)n2Cc2ccccc2)C=C(C(C)(C)C)C1=O	> 100 µM	> 100 µM	> 100 µM		> 100 µM	> 100 µM	> 100 µM	> 100 µM	> 100 µM									
O=C(NCCCN1CCN(CCCNC(=O)c2cccc3ccccc23)CC1)c1cccc2ccccc12	> 100 µM	> 100 µM	> 100 µM	> 100 µM	> 100 µM	> 100 µM	> 100 µM	> 100 µM	> 100 µM									
N.N.N.N.N#N.N#N.[Cl-].[Os+6]	> 100 µM	> 100 µM		> 100 µM	> 100 µM	> 100 µM	> 100 µM	> 100 µM	> 100 µM	> 100 µM	> 100 µM		> 100 µM	> 100 µM	> 100 µM	> 100 µM	> 100 µM	> 100 µM
S=C1SCC2CCCN12 (stereo unspecified)	> 100 µM	> 100 µM	> 100 µM	> 100 µM	> 100 µM		> 100 µM	> 100 µM	> 100 µM									
O=C(c1ccccc1)c1nc2c(Cl)ccc(Cl)c2cc1C(Br)Br	13.4 µM	14.5 µM		12.4 µM	3.07 µM		2.29 µM	7.59 µM	2.56 µM									
